From PubChem BioAssay (NCI)
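Tested at 5 concentrations; 48 h exposure; 96-well plates; endpoints linearly interpolated, else capped at highest concentration. Definition used: TGI = concentration required for complete inhibition of growth.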 Where a SMILES comes first, the peptide text is derived from it. The star is where a group is joined. Boc = CC(C)(C)OC(=O)*

What was measured:
Assay in all cases: inhibition of tumour cell growth, NCI panel, 48 h
ACHN renal = test system: ACHN renal
SF-295 CNS = test system: SF-295 CNS
A498 renal = test system: A498 renal
NCI-H460 lung = test system: NCI-H460 lung
HCT-116 colon = test system: HCT-116 colon
M14 melanoma = test system: M14 melanoma
RXF 393 renal = test system: RXF 393 renal
NCI/ADR-RES ovarian = test system: NCI/ADR-RES ovarian
NCI-H23 lung = test system: NCI-H23 lung
PC-3 prostate = test system: PC-3 prostate
SK-MEL-28 melanoma = test system: SK-MEL-28 melanoma
U251 CNS = test system: U251 CNS
HOP-62 NSCLC = test system: HOP-62 NSCLC
MDA-MB-231 breast = test system: MDA-MB-231 breast
SW-620 colon = test system: SW-620 colon
SK-OV-3 ovarian = test system: SK-OV-3 ovarian
SNB-19 CNS = test system: SNB-19 CNS
HL-60(TB) leukemia = test system: HL-60(TB) leukemia

| Compound | TGI (ACHN renal) [µM] | TGI (SF-295 CNS) [µM] | TGI (A498 renal) [µM] | TGI (NCI-H460 lung) [µM] | TGI (HCT-116 colon) [µM] | TGI (M14 melanoma) [µM] | TGI (RXF 393 renal) [µM] | TGI (NCI/ADR-RES ovarian) [µM] | TGI (NCI-H23 lung) [µM] | TGI (PC-3 prostate) [µM] | TGI (SK-MEL-28 melanoma) [µM] | TGI (U251 CNS) [µM] | TGI (HOP-62 NSCLC) [µM] | TGI (MDA-MB-231 breast) [µM] | TGI (SW-620 colon) [µM] | TGI (SK-OV-3 ovarian) [µM] | TGI (SNB-19 CNS) [µM] | TGI (HL-60(TB) leukemia) [µM] |
| --- | --- | --- | --- | --- | --- | --- | --- | --- | --- | --- | --- | --- | --- | --- | --- | --- | --- | --- |
| CCCCCCCCCC(=O)NCCc1c[nH]c2ccc(OC)cc12 | 30.6 | 32 | 29.9 | 50.1 | 43.5 | 34 | 38 | 38.4 | 31.6 | 28.9 | 33.1 | 31.2 | 31.1 | 30.9 | 34.5 | 31.7 | 31.2 |  |
| O=C(NC(=O)c1ccccc1)OC(c1ccccc1)C1CO1 (stereo not given) | > 100 | > 100 |  | > 100 | > 100 | > 100 | > 100 | > 100 | > 100 | > 100 | > 100 | > 100 | > 100 | > 100 | > 100 | > 100 | > 100 | > 100 |
| CCCCC(O)(c1ccccc1)C(O)(c1ccccc1)c1c(F)c(F)c(F)c(F)c1F (stereo not given) | 72.6 |  | 49.4 | 54.4 | 65 | > 100 |  | 49.1 | > 100 | 46.8 | 86.1 | 32 | 49.5 | 34.9 | 61.8 | > 100 | > 100 | 61.9 |
| C=C[C@]1(C)CC(=O)C(C(C)C=O)[C@]12C(=O)Oc1cccc(C)c1C2=O (stereo not given in full) | 29 | 28.9 | 71.1 | 30.5 | 20.6 | 29.8 | 27.6 |  | 33.2 | 26.3 | 29.2 | 28.3 | 35.9 | 31.6 | 25.2 | 33.1 | 24.6 | 32.3 |
| Cc1occc1C(=S)Nc1ccc(Cl)c(C(=O)OCC(C)C)c1 | 43.2 | 33.2 | 30.4 | 44.9 | 28.8 | 65 |  | 28.6 | 45.3 | 38.7 | 32.3 | 35.9 |  | 31.4 | 45.8 | 42.4 | 31.2 | 79.5 |
| O=C(O)CCNc1ncc2c(n1)-c1ccccc1OC2 | > 100 | > 100 |  | > 100 | > 100 | > 100 | > 100 | > 100 | > 100 | > 100 | > 100 | > 100 | > 100 | > 100 | > 100 | > 100 | > 100 | > 100 |
| CC(NC(=O)C1CCCN1C(=O)CNC(=O)OC(C)(C)C)C(=O)O (stereo not drawn) (Boc-Gly-Pro-Ala-OH; configuration not given here) | > 100 | > 100 |  | > 100 |  | > 100 | > 100 | > 100 | > 100 | > 100 | > 100 | > 100 | > 100 | > 100 | > 100 | > 100 | > 100 |  |
| Cc1n[nH]c(=O)n1Nc1ccccc1 | > 100 | > 100 |  | > 100 | > 100 | > 100 |  | > 100 | > 100 | > 100 | > 100 | > 100 | > 100 | > 100 | > 100 | > 100 | > 100 | > 100 |
| COc1ccc(N=C(CS(=O)c2ccc(C)cc2)C(F)(F)F)cc1 (stereo not given) | > 100 | > 100 |  | > 100 | > 100 | > 100 | > 100 | > 100 | > 100 | > 100 | > 100 | > 100 |  | > 100 | > 100 | > 100 | > 100 | 50.9 |
| Fc1ccc(Oc2nc3ccccc3nc2-c2ccccc2)cc1 | > 100 | > 100 | > 100 | > 100 | > 100 |  | > 100 |  | > 100 | > 100 | > 100 | > 100 | > 100 | > 100 | > 100 | > 100 | > 100 | > 100 |
| CC1(c2nc3ccccc3[nH]2)CCC(C#N)C(C)(C)O1 (stereo not given) | > 100 | > 100 |  |  | > 100 | > 100 | > 100 | > 100 | > 100 | > 100 | > 100 | > 100 | > 100 | > 100 | > 100 | > 100 | > 100 | > 100 |
| CCCC(=O)N(C)N=Nc1ccc(C(=O)OCC)cc1 | > 100 | > 100 | > 100 | > 100 | > 100 | > 100 | > 100 |  | > 100 | > 100 | > 100 | > 100 | > 100 | > 100 | > 100 |  | > 100 | > 100 |
| OCC1C2CCC3(OCCO3)C12 (stereo not given) | > 100 | > 100 |  | > 100 | > 100 | > 100 | > 100 | > 100 | 33.7 | > 100 | > 100 | > 100 | > 100 | > 100 | > 100 | > 100 | > 100 |  |
| CC(NC(=O)C(N)CC(=O)O)C(=O)OC12CC3CC(CC(C3)C1)C2 (stereo not given) | > 100 |  |  | > 100 | > 100 | > 100 | > 100 | > 100 | > 100 | > 100 | > 100 | > 100 |  | > 100 | > 100 | > 100 | > 100 |  |
